Active and inactive are the calls of the source. How the calls were made is not given here.
System: rodent carcinogenicity bioassays, tumor incidence
Assay: CCRIS carcinogenicity studies
Outline: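 Archive of carcinogenicity, mutagenicity, tumor promotion and tumor inhibition results drawn from journals, NCI reports and other sources, expert-reviewed; covers 1985-2011 and is no longer updated.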

In the case of CC[N+]([O-])=NC, the carcinogen call (Species: RAT, Strain/Sex: F344/MALE, Route: ORAL, Dose: 0, 12, 48 MG/ML IN A NEUTRAL DEIONIZED DRINKING WATER SOLUTION 5 D/WK FOR 30 WK (TOTAL DOSE 36; 115 MG) (STUDY DURATION:, Dose: 0, 12, 48 MG/ML IN A NEUTRAL DEIONIZED DRINKING WATER SOLUTION 5 D/WK FOR 30 WK (TOTAL DOSE 36; 115 MG) (STUDY DURATION:, Tumor Site: Type of Lesion: LIVER: CARCINOMA, HEMANGIOSARCOMA, COLON: ADENOCARCINOMA, ADENOMA, ILEUM: TUMOR, Tumor Site: Type of Lesion: LIVER: CARCINOMA, HEMANGIOSARCOMA, COLON: ADENOCARCINOMA, ADENOMA, ILEUM: TUMOR) is reported as “active; positive”.
With O=P1(N(CCCl)CCCl)NCCCO1 (stereo not drawn) the carcinogen call (Species: FISH, Strain/Sex: SHASTA RAINBOW TROUT/MALE, FEMALE, Route: ORAL, Dose: 0, 200 PPM IN DIET FOR 18 MO (STUDY DURATION: 18 MO)) was “inactive; negative”, the carcinogen call (Species: HUMAN, Route: ORAL, Tumor Site: Type of Lesion: URINARY BLADDER) was “active; positive” and the carcinogen call (Species: MOUSE, Strain/Sex: NMRI/FEMALE, Route: SUBCUTANEOUS, Dose: 0, 13, 26 MG/KG IN SALINE 1/WK FOR LIFETIME (STUDY DURATION: LIFETIME), Dose: 0, 13, 26 MG/KG IN SALINE 1/WK FOR LIFETIME (STUDY DURATION: LIFETIME), Tumor Site: Type of Lesion: LYMPHATIC SYSTEM: MALIGNANT LEUKEMIA) was “active; positive”. The carcinogen call (Species: MOUSE, Strain/Sex: NMRI/FEMALE, Route: SUBCUTANEOUS, Dose: 26 MG/KG 1/WK FOR 52 WK, Tumor Site: Type of Lesion: MAMMARY GLAND: CARCINOMA, MULTIPLE SITES: CARCINOMA, SARCOMA) was “active; positive”, the carcinogen call (Species: RAT, Strain/Sex: BR46/MALE, Route: INTRAVENOUS, Dose: 15 MG/KG 1/WK OR 5 DOSES OF 33 MG/KG EVERY 2 WK, Tumor Site: Type of Lesion: MULTIPLE SITES) was “active; positive” and the carcinogen call (Species: RAT, Strain/Sex: SPRAGUE-DAWLEY/MALE,FEMALE, Route: ORAL, Dose: 0.31, 0.63, 1.25, 2.5 MG/KG 5/WK, Dose: 0.31, 0.63, 1.25, 2.5 MG/KG 5/WK, Tumor Site: Type of Lesion: URINARY BLADDER: PAPILLOMA, TRANSITIONAL CELL CARCINOMA) was “active; positive”. For the same compound, the carcinogen call (Species: RAT, Strain/Sex: SPRAGUE-DAWLEY/MALE, Route: INTRAVENOUS, Dose: 13 MG/KG 1/WK, Tumor Site: Type of Lesion: MULTIPLE SITES) was “active; positive”.
In the case of CC1CC(=O)O1 (stereo not drawn), the carcinogen call (Species: MOUSE, Route: DERMAL, Tumor Site: Type of Lesion: INTEGUMENTARY SYSTEM (SKIN)) is reported as “active; positive”, the carcinogen call (Species: MOUSE, Route: SUBCUTANEOUS, Tumor Site: Type of Lesion: INJECTION SITE) is reported as “active; positive” and the carcinogen call (Species: RAT, Route: GAVAGE, Tumor Site: Type of Lesion: FORESTOMACH) is reported as “active; positive”. The carcinogen call (Species: RAT, Route: SUBCUTANEOUS, Tumor Site: Type of Lesion: INJECTION SITE) was “active; positive”.
COC(=O)C(C)(C)Oc1ccc(-c2ccc(Cl)cc2)cc1 was tested, and the carcinogen call (Species: RAT, Strain/Sex: F344/MALE, Route: ORAL, Dose: 0.1% IN DIET FOR 75 WK, Tumor Site: Type of Lesion: LIVER: HEPATOCELLULAR CARCINOMA) was “active; positive”.
For OC1c2cccc3c2[C@]2(O[C@H]2C1O)c1ccccc1-3 (stereo partly drawn), the carcinogen call (Species: MOUSE, Strain/Sex: ICR/FEMALE, Route: INTRAPERITONEAL, Dose: 0, 500 NMOL (TOTAL DOSE) ADMINISTERED IN DOSES OF 1/7, 2/7, AND 4/7 ON DAYS 1, 7, AND 15 OF LIFE, RESPECTIVELY (STUDY DU, Tumor Site: Type of Lesion: LUNG: TUMOR) was “active; positive”, the carcinogen call (Species: MOUSE, Strain/Sex: ICR/MALE, Route: INTRAPERITONEAL, Dose: 0, 500 NMOL (TOTAL DOSE) ADMINISTERED IN DOSES OF 1/7, 2/7, AND 4/7 ON DAYS 1, 7 AND 15 OF LIFE , RESPECTIVELY (STUDY DU, Tumor Site: Type of Lesion: LUNG: TUMOR, LIVER: TUMOR) was “active; positive” and the carcinogen call (Species: RAT, Strain/Sex: STRAIN-CD/FEMALE, Route: INJECTION, Dose: 0, 2, 10 UMOL IN 0.1 ML DMSO INJECTED INTO MAMMARY TISSUE UNDER EACH OF THE 3 LEFT THORACIC NIPPLES FOLLOWED BY SIMILAR, Dose: 0, 2, 10 UMOL IN 0.1 ML DMSO INJECTED INTO MAMMARY TISSUE UNDER EACH OF THE 3 LEFT THORACIC NIPPLES FOLLOWED BY SIMILAR, Tumor Site: Type of Lesion: MAMMARY GLAND: TUMOR) was “active; positive”.
In the case of CC(CN1c2ccccc2Sc2ccccc21)N(C)C (stereo not drawn), the carcinogen call (Species: MOUSE, Strain/Sex: B6C3F1/FEMALE, Route: GAVAGE, Dose: 0, 3.75, 7.5, 15 MG/KG IN WATER 1/D 5 D/WK FOR 103 WK (STUDY DURATION: 106 WK), Dose: 0, 3.75, 7.5, 15 MG/KG IN WATER 1/D 5 D/WK FOR 103 WK (STUDY DURATION: 106 WK)) is reported as “inactive; negative”, the carcinogen call (Species: MOUSE, Strain/Sex: B6C3F1/MALE, Route: GAVAGE, Dose: 0, 11.25, 22.5, 45 MG/KG IN WATER 1/D 5 D/WK FOR 103 WK (STUDY DURATION: 106 WK), Dose: 0, 11.25, 22.5, 45 MG/KG IN WATER 1/D 5 D/WK FOR 103 WK (STUDY DURATION: 106 WK)) is reported as “inactive; negative” and the carcinogen call (Species: RAT, Strain/Sex: F344/FEMALE, Route: GAVAGE, Dose: 0, 8.3, 16.6, 33.3 MG/KG IN WATER 1/D 5 D/WK FOR 103 WK (STUDY DURATION: 106 WK), Dose: 0, 8.3, 16.6, 33.3 MG/KG IN WATER 1/D 5 D/WK FOR 103 WK (STUDY DURATION: 106 WK)) is reported as “inactive; negative”. For the same compound, the carcinogen call (Species: RAT, Strain/Sex: F344/MALE, Route: GAVAGE, Dose: 0, 8.3, 16.6, 33.3 MG/KG IN WATER 1/D 5 D/WK FOR 103 WK (STUDY DURATION: 106 WK), Dose: 0, 8.3, 16.6, 33.3 MG/KG IN WATER 1/D 5 D/WK FOR 103 WK (STUDY DURATION: 106 WK)) was “inactive; negative”.
With Cc1cnc(C2=NC(C)(C(C)C)C(=O)N2)c(C(=O)O)c1 (stereo not drawn) the carcinogen call (Species: Mouse, Strain/Sex: CD-1[Crl(ICR)BR]/Female (55/Group), Route: Oral, Dose: 0, 1750, 3500, 7000 ppm of 96.9% imazapic in diet for 18 mo, study duration 18 mo, Dose: 0, 1750, 3500, 7000 ppm of 96.9% imazapic in diet for 18 mo, study duration 18 mo) was “inactive; negative”, the carcinogen call (Species: Mouse, Strain/Sex: CD-1[Crl(ICR)BR]/Male (55/Group), Route: Oral, Dose: 0, 1750, 3500, 7000 ppm of 96.9% imazapic in diet for 18 mo, study duration 18 mo, Dose: 0, 1750, 3500, 7000 ppm of 96.9% imazapic in diet for 18 mo, study duration 18 mo) was “inactive; negative” and the carcinogen call (Species: Rat, Strain/Sex: Crl:CD(SD)BR/Female (55/Group), Route: Oral, Dose: 0, 5000, 10,000, 20,000 ppm of 96.4% imazapic in diet for 24 mo, study duration 24 mo, Dose: 0, 5000, 10,000, 20,000 ppm of 96.4% imazapic in diet for 24 mo, study duration 24 mo) was “inactive; negative”. For the same compound, the carcinogen call (Species: Rat, Strain/Sex: Crl:CD(SD)BR/Male (55/Group), Route: Oral, Dose: 0, 5000, 10,000, 20,000 ppm of 96.4% imazapic in diet for 24 mo, study duration 24 mo, Dose: 0, 5000, 10,000, 20,000 ppm of 96.4% imazapic in diet for 24 mo, study duration 24 mo) was “inactive; negative”.
In the case of C[C@]12CC[C@@H]3C4=C(CC[C@H]3[C@@H]1CCC2=O)C(=O)C(=O)C=C4, the carcinogen call (Species: RAT, Strain/Sex: STRAIN-CD/FEMALE, Route: INJECTION, Dose: 0, 30 UMOL (TOTAL DOSE) 1/6 INJECTED UNDER EACH OF 3 THORACIC AND 3 INGUINAL NIPPLES ONCE (STUDY DURATION: 44 WK)) is reported as “inactive; negative”.
For Nc1cc(Cl)c(N)c(Cl)c1, the carcinogen call (Species: MOUSE, Strain/Sex: B6C3F1/FEMALE, Route: ORAL, Dose: 0, 1000, 3000 PPM IN DIET, Dose: 0, 1000, 3000 PPM IN DIET, Tumor Site: Type of Lesion: LIVER: HEPATOCELLULAR ADENOMA OR CARCINOMA) was “active; positive”, the carcinogen call (Species: MOUSE, Strain/Sex: B6C3F1/MALE, Route: ORAL, Dose: 0, 1000, 3000 PPM IN DIET, Dose: 0, 1000, 3000 PPM IN DIET, Tumor Site: Type of Lesion: LIVER: HEPATOCELLULAR ADENOMA OR CARCINOMA) was “active; positive” and the carcinogen call (Species: RAT, Strain/Sex: F344/FEMALE, Route: ORAL, Dose: 0, 2000, 6000 PPM IN DIET, Dose: 0, 2000, 6000 PPM IN DIET) was “inactive; negative”. The carcinogen call (Species: RAT, Strain/Sex: F344/MALE, Route: ORAL, Dose: 0, 1000, 2000 PPM IN DIET, Dose: 0, 1000, 2000 PPM IN DIET) was “inactive; negative”.
With O=C(CCl)c1ccccc1 the carcinogen call (Species: MOUSE, Strain/Sex: B6C3F1/FEMALE, Route: INHALATION, Dose: 0, 2, 4 MG/M3 6 HR/D 5 D/WK FOR 103 WK (STUDY DURATION: 105 WK), Dose: 0, 2, 4 MG/M3 6 HR/D 5 D/WK FOR 103 WK (STUDY DURATION: 105 WK)) was “inactive; negative”, the carcinogen call (Species: MOUSE, Strain/Sex: B6C3F1/MALE, Route: INHALATION, Dose: 0, 2, 4 MG/M3 6 HR/D 5 D/WK FOR 103 WK (STUDY DURATION: 105 WK), Dose: 0, 2, 4 MG/M3 6 HR/D 5 D/WK FOR 103 WK (STUDY DURATION: 105 WK)) was “inactive; negative” and the carcinogen call (Species: RAT, Strain/Sex: F344/FEMALE, Route: INHALATION, Dose: 0, 1, 2 MG/M3 6 HR/D 5 D/WK FOR 103 WK (STUDY DURATION: 105 WK), Dose: 0, 1, 2 MG/M3 6 HR/D 5 D/WK FOR 103 WK (STUDY DURATION: 105 WK), Tumor Site: Type of Lesion: MAMMARY GLAND: FIBROADENOMA) was “equivocal”. The carcinogen call (Species: RAT, Strain/Sex: F344/MALE, Route: INHALATION, Dose: 0, 1, 2 MG/M3 6 HR/D 5 D/WK FOR 103 WK (STUDY DURATION: 105 WK), Dose: 0, 1, 2 MG/M3 6 HR/D 5 D/WK FOR 103 WK (STUDY DURATION: 105 WK)) was “inactive; negative”.

Reference: PubChem BioAssay AID1259411 (Chemical Carcinogenesis Research Information System (CCRIS), 2018)
